This note sets out measurements from US20200376035A1, “METHODS AND COMPOSITIONS COMPRISING CART AND A SMAC MIMETIC” (THE TRUSTEES OF THE UNIVERSITY OF PENNSYLVANIA, priority 2018, published 2020).

*1 amine or outer side, *2 acyl side, *3 side chain or, on linkers, in order; H or OH if unused. Where a SMILES comes first, the peptide text is derived from it. Bridges are numbered along the chain shown (N, C = ends). Roman numbers before positions name the chains, in order. [ ]: non-standard residue; d: D form. Hexamethylenediamine = C(CCCN[*:2])CCN[*:1]; Dip = N[C@H](C(=O)O)C(c1ccccc1)c1ccccc1; Chg = N[C@H](C(=O)O)C1CCCCC1; NMeA = CN[C@@H](C)C(=O)O

The subject of data set [1] is HER2+ human ovarian cancer cell line (SKOV3). The data set can be described thus: SMAC mimetics with anti-HER2 CAR T (4D5) against SKOV3, luminescence and XCelligence. The format is cell-based. The following applies: SKOV3 + anti-HER2 CAR T (4D5), 50 nM drug vs DMSO. How it is done: FIGS. 12A-12B illustrate the synergistic killing of solid tumors using CAR cells in combination with SMAC mimetics. […] E:T ratio=0.01:1, [Drug]=50 nM. 24 h co-culture, A human ovarian cell line expressing endogenous HER2 and luciferase reporter (SKOV3 CBG-T2A-GFP) was seeded at density of 10^4 cells/100 μl of media in each well of 96 well plate and grown overnight. Next day, CAR T cells (4D5; Liu et al. Cancer Research 2015; (75)(17):3596-607, incorporated by reference herein in its entirety) were introduced at E:T ratio=0.01:1 50 nM of SMAC mimetics or corresponding amounts of DMSO. After 48 hours, luciferin was added to the cells and luminescence was detected using a luminometer (Biotek Synergy H4). Tumor killing was calculated using the formula: (sample-tumor treated with DMSO)/(lysis control-tumor treated with DMSO). A human ovarian adenocarcinoma cell line (SKOV3) expressing endogenous HER2 was cultured in the presence or absence of human T cells expressing a chimeric antigen receptor against HER2 at a 1:1 CART:Tumor ratio. Cells were treated with 50 nM of birinapant ([…]), BV6, AZD5582 or corresponding amounts of DMSO. Tumor killing was monitored in real-time using the impedance-based […]@ system (ACEA Biosciences, Inc).

For data set [2], the system named is CD19+ Luc+ NALM-6 leukemia cell line. The data set can be described thus: High-throughput screen of small molecule library for CART-enhancing compounds (luminescence, 48 hours). The format is cell-based, human. The following applies: for effect on CART killing activity in the screen: NALM-6 + CART19, 0.3:1 E:T ratio. How it is done:
FIG. 6 illustrates a high-throughput platform to identify CART-enhancing bioactive compounds. The CD19+ Luc+ NALM-6 leukemia cell line was plated at 0.3:1 E:T ratio+/− CART19 using an automated dispenser, Small molecules from a custom-made library (SelleckChem) were then added via an automated workstation and luminescence was detected after 48 hours with a high-throughput plate reader.
FIG. 7 illustrates that birinapant enhances CART cell cytotoxicity. Screening results: total cytotoxicity (%) of small molecules alone (Y axis) or in combination with CART (X axis). Birinapant is represented by the dot at the “40” mark on the X axis (●).
An unbiased, reliable, automated, high-throughput system was generated to test thousands of different combinations of CART and small molecules. […] Subsequently, 2,615 different small molecules were added (1 per well). More than half of these drugs are FDA-approved. After 48 hours, tumor luminescence was recorded and percentage tumor killing was calculated. This platform has already generated several significant hits. See FIG. 7, birinapant in grey, represented by the dot at the “40” mark on the X axis (●). Thus, small molecules enhancing CART killing can be identified.
Birinapant was the only SMAC mimetic in the library.

Data set [3] concerns human pre-B ALL cell line (NALM6 CBG-T2A-GFP). The data set can be described thus: CART19 (CTL019) killing of NALM6 with birinapant, luciferase readout after 72 hours. Format: cell-based. The following applies: NALM6 + CTL019 at different ratios, different doses of birinapant vs DMSO. How it is done:
FIG. 1A is a graph showing the percentage of tumor killing by CART as a result of increasing concentrations of birinapant or corresponding amounts of DMSO as a control. FIG. 1B is a graph showing the percentage of tumor killing by CART as a function of CART:Tumor ratio. For FIGS. 1A-1B, a human pre-B ALL cell line expressing endogenous CD19 and a luciferase reporter (NALM6 CBG-T2A-GFP) was cultured in the presence or absence of human T cells expressing a chimeric antigen receptor against CD19 (CTL019, KYMRIAH®) at different ratios. Cells were treated with different doses of birinapant (TL32711, Medivir) or corresponding amounts of DMSO. After 72 hours luciferin was added to the cells and luminescence was detected using a luminometer (Biotek Synergy H4). Tumor killing was calculated using the formula: (sample−tumor treated with DMSO)/(lysis control−tumor treated with DMSO). […]
A human pre-B ALL cell line expressing endogenous CD19 and a luciferase reporter (NALM6 CBG-T2A-GFP) was cultured in the presence or absence of human T cells expressing a chimeric antigen receptor against CD19 (CTL019, KYMRIAH®) at different ratios. […] After 72 hours luciferin was added to the cells and luminescence was detected using a luminometer (Biotek Synergy H4). Tumor killing was calculated using the formula: (sample−tumor treated with DMSO)/(lysis control−tumor treated with DMSO). […]

The subject of data set [4] is human ovarian adenocarcinoma cell line (SKOV3). The data set can be described thus: Anti-HER2 CART (CAR 4D5) killing of SKOV3 with birinapant, impedance-based XCelligence. The format is cell-based. Conditions: SKOV3 + CAR 4D5, 1:1 CART:Tumor ratio, different doses of birinapant vs DMSO, real-time impedance. Here is the method:
FIG. 2A is a graph showing the growth and clearance of tumor cells over time. At approximately 21 h (vertical line) tumor cells were treated with only Birinapant (solid lines) or Birinapant and CART cells (dotted lines, 1:1 CART:Tumor ratio). FIG. 2B is analogous to FIG. 2A except for the addition of DMSO instead of Birinapant. FIGS. 2C and 2D summarize the results of FIGS. 2A and 2B, respectively (10 nM Birinapant or DMSO). For FIGS. 2A-2D, a human ovarian adenocarcinoma cell line (SKOV3) expressing endogenous HER2 was cultured in the presence or absence of human T cells expressing a chimeric antigen receptor against HER2 (CAR 4D5) at a 1:1 CART:Tumor ratio, Cells were treated with different doses of birinapant (TL32711, Medivir) or corresponding amounts of DMSO. Tumor killing was monitored in real-time using the impedance-based XCelligence® system (ACEA Biosciences, Inc),
A human ovarian adenocarcinoma cell line (SKOV3) expressing endogenous HER2 was cultured in the presence or absence of human T cells expressing a chimeric antigen receptor against HER2 (CAR 4D5; Liu et al. Cancer Research 2015; (7517):3596-607, incorporated by reference herein in its entirety) at a 1:1 CART:Tumor ratio. […] Tumor killing was monitored in real-time using the impedance-based XCelligence® system (ACEA Biosciences, Inc).

For data set [5], the system named is human pre-B ALL cell line (NALM6 CBG-T2A-GFP). The data set can be described thus: Birinapant-enhanced CART19 killing of NALM6 with TNF antibodies, 72 hours. The format is cell-based. The following applies: NALM6 + CTL019, 1 μM birinapant with isotype control or TNF antibodies. How it is done:
(§1) A human pre-B ALL cell line expressing endogenous CD19 and a luciferase reporter (NALM6 CBG-T2A-GFP) was cultured in the presence or absence of human T cells expressing a chimeric antigen receptor against CD19 (CTL019, KYMRIAH®). Cells were either treated with 1 μM of birinapant (TL32711, Medivir), corresponding amounts of DMSO or 1 μM birinapant (TL32711, Medivir) in combination with different amounts of isotype control or TNF antibodies. After 72 hours, luciferin was added to the cells and luminescence was detected using a luminometer (Biotek Synergy H4), Tumor killing was calculated using the formula: (sample−tumor treated with DMSO)/(lysis control−tumor treated with DMSO).
as §1, with “μM” for “μM of”, “and” for “in combination with”, “H4).” for “H4),”

Turning to `CN[C@@H](C)C(=O)N[C@H](C(=O)N1CCC[C@H]1C(=O)N[C@H]1c2ccccc2C[C@H]1OCC#CC#CCO[C@@H]1Cc2ccccc2[C@@H]1NC(=O)[C@@H]1CCCN1C(=O)[C@@H](NC(=O)[C@H](C)NC)C1CCCCC1)C1CCCCC1` [AZD5582, (2S,2′S)-N,N′-((S,1′S,2R,2′R)-(hexa-2,4-diyne-1,6-diylbis(oxy))bis(2,3-dihydro-1H-indene-2,1-diyl))bis(1-((S)-2-cyclohexyl-2-((S)-2-(methylamino)propanamido)acetyl)pyrrolidine-2-carboxamide)], in data set [1], the “CART killing of solid tumor cell lines” value is given as “enhance CART killing of solid tumor cell lines”. Regarding `CN[C@@H](C)C(=O)N[C@H](C(=O)N1CCC[C@H]1C(=O)N[C@H](C(=O)NCCCCCCNC(=O)[C@@H](NC(=O)[C@@H]1CCCN1C(=O)[C@@H](NC(=O)[C@H](C)NC)C1CCCCC1)C(c1ccccc1)c1ccccc1)C(c1ccccc1)c1ccccc1)C1CCCCC1` [BV6, ((S,S,2S,2′S)-N,N′-((2S,2′S)-(hexane-1,6-diylbis(azanediyl))bis(3-oxo-1,1-diphenylpropane-3,2-diyl))bis(1-((S)-2-cyclohexyl-2-((S)-2-(methylamino)propanamido)acetyl)pyrrolidine-2-carboxamide))] (I: H-[NMeA][Chg]P[Dip] / II: H-[NMeA][Chg]P[Dip]; linker I:C-II:C via Hexamethylenediamine), in data set [1], the “CART killing of solid tumor cell lines” value is reported as “enhance CART killing of solid tumor cell lines”. For the compound `CCCCCCCCCCCC1=C(O)C(=O)C=C(O)C1=O` [Embelin, 2,5-Dihydroxy-3-undecyl-2,5-cyclohexadiene-1,4-dione], in data set [2], the “effect on CART killing activity in the screen” value is on record as “Neither Embelin nor GDC-0152 revealed a significant effect on CART killing activity”. Still for that read-out and setting: the same measure for `CN[C@@H](C)C(=O)N[C@H](C(=O)N1CCC[C@H]1C(=O)Nc1snnc1-c1ccccc1)C1CCCCC1` [GDC-0152, (S)-1-((S)-2-cyclohexyl-2-((S)-2-(methylamino)propanamido)acetyl)-N-(4-phenyl-1,2,3-thiadiazol-5-yl)pyrrolidine-2-carboxamide]: “Neither Embelin nor GDC-0152 revealed a significant effect on CART killing activity”.

In the case of `CC[C@H](NC(=O)[C@H](C)NC)C(=O)N1C[C@@H](O)C[C@H]1Cc1c(-c2[nH]c3cc(F)ccc3c2C[C@@H]2C[C@H](O)CN2C(=O)[C@H](CC)NC(=O)[C@H](C)NC)[nH]c2cc(F)ccc12` [birinapant, (2S)-N-[(2S)-1-[(2R,4S)-2-[[6-fluoro-2-[6-fluoro-3-[[(2R,4S)-4-hydroxy-1-[(2S)-2-[[(2S)-2-(methylamino)propanoyl]amino]butanoyl]pyrrolidin-2-yl]methyl]-1H-indol-2-yl]-1H-indol-3-yl]methyl]-4-hydroxypyrrolidin-1-yl]-1-oxobutan-2-yl]-2-(methylamino)propanamide], the “total cytotoxicity (%) of small molecules in combination with CART (X axis)” value in data set [2] (FIG. 7, NALM-6 + CART19, 0.3:1 E:T ratio) is 40%. For the same compound, the “CART killing of leukemic cell lines” value in data set [3] is “enhances CART killing of leukemic cell lines”. In addition, the “CART killing of solid tumor cell lines” value in data set [4] is on record as “enhances CART killing of solid tumor cell lines”; in data set [1], “enhance CART killing of solid tumor cell lines”. For the same compound, the “TNF dependence of enhanced CART killing of tumor” value in data set [5] was “birinapant-enhanced CART killing of tumor is TNF-dependent”.
